According to ChEMBL document CHEMBL1128168, “An efficient synthesis of the benzhydrylpiperazine delta opioid agonist (+)-BW373U86” (Bioorg Med Chem Lett, 1995):

Molecular target: Delta-type opioid receptor (Homo sapiens) (UniProt P41143)
Assay: Compound was tested for delta-opioid receptor agonistic activity;A - found to be highly selective
Assay type: functional
Details: filed as agonist

Chain of Delta-type opioid receptor (Homo sapiens) (P41143 whole entry): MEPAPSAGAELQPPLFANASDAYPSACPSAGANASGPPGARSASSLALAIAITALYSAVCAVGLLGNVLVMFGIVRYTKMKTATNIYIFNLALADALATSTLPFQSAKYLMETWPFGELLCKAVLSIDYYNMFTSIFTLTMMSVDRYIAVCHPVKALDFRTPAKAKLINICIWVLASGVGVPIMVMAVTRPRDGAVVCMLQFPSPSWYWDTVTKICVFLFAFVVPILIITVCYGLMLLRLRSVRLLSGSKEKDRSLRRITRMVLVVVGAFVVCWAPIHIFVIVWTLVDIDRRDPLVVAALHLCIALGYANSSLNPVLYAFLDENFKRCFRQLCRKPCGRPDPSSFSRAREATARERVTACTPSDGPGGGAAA

`C=CCN1C[C@H](C)N([C@H](c2ccc(C(=O)N(CC)CC)cc2)c2cccc(O)c2)C[C@H]1C` was tested, and the Activity was “Agonist”.
